Experiments:
[1] = POV by titration in formulated ranch salad dressing
Source text: Blank Samples: In all of the experiments below, an Untreated Oil (Blank) sample was maintained. The Blank was always packaged, stored, handled, and sampled in exactly the same manner as the Treated Sample, excepting the addition of the 2-oxoacid salt. In this way, the effect of the atmospheric oxygen in the headspace volume would be similar. For example, the ratio of the headspace volume to the volume of oil, and the area of contact between the headspace and the oil surface, would be the same for Treated and Untreated samples.
Into 30 mL glass vial was placed 15 g of a commercial salad dressing that had been stored in the lab at room temperature for an unknown but extended period after opening. To this vial, 0.4002 g of PhPA-DiMeC 10A was added and mixed well. The mixture was allowed to stand on the bench top under ambient laboratory light at room temperature. Periodically, measurements were recorded of the POV by titration, rancid-smelling aldehydes by HPLC with DNPH derivatization (see method above), and sensory evaluation.

[2] = Aldehyde and ketone reaction products by HPLC with DNPH derivatization in a soap formulation; conditions: treated vs untreated soap, peak area
Description: The extent of rancidity in the soap formulation tested was determined by measuring the content of aldehyde and ketone reaction products of the soap oils present. DNPH derivatives of aldehydes/ketone products in soap and treated soap were synthesized as follows:
0.1000 g of a soap formulation, either treated or untreated with DiMeC10A-PhPA were separately measured and diluted to 12 mL by the addition of propan-2-ol. 1 mL of this prepared diluted mixture was added to 1 mL of diluted DNPH solution which was prepared separately by mixing DNPH (3 g/L) and 3% HCL and diluted into 12 mL by the addition of propan-2-ol. The reaction vial was stirred and kept at 40C for 1 hr to accelerate derivatization reaction. Then it was cooled to room temperature and neutralized with 20% triethylamine and centrifuged at 5000 rpm for 5 min. The sample was then injected into the HPLC column.

[3] = POV reduction in model citrus perfume (mixed citrus oil in 90/10 v/v ethanol/water); conditions: for % POV Reduction: model citrus perfume, vs untreated sample

## CCCCCCCCCCN(C)C.O=C(O)C(=O)Cc1ccccc1 [DiMeC10A-PhPA]
[1]; 50 mins since addition
  % of reduction in POV: 0%
[1]; 6 hrs since addition
  % of reduction in POV: 53%
[1]; 26 hrs since addition
  % of reduction in POV: 62%
[2]
  2-nonenal % reduction: 52.4%
  decanal % reduction: 55.8%
  heptanal % reduction: 60%
  hexanal % reduction: 66.7%
  nonanal % reduction: 79%
  octanal % reduction: 72.3%
  retention time 22.9 % reduction: 51.3%
  retention time 27.7 % reduction: 72.7%
  retention time 29.8 % reduction: 70.5%
  retention time 30.6 % reduction: 65.5%
  retention time 31.05 % reduction: 68.1%
  retention time […] reduction: 63.3%

## CCC(CC)(C(=O)[O-])C(=O)C(=O)O.[Na+] [Diethyloxaloacetate, Sodium Salt]
[3]; 165 Minutes after addition of treating compound
  % POV Reduction: 36.9%
[3]; 24 hours after addition of treating compound
  % POV Reduction: 92.7%

## CN(C)CCO.CN(C)CCO.O=C(O)CCC(=O)C(=O)O [AKG DiDeanol]
[3]; […] (24 hours), 1.0% w/v in model perfume
  POV Treated Perfume: 0.0 mmol/L

— US20230210735A1, “PREVENTION, REDUCTION, OR AMELIORATION OF OLD PERSON SMELL” (Firmenich SA, priority 2020, published 2023)
